# Key:
# [1] = Solubility of the esters at 1 mg/ml in water and buffer solutions; details: for solubility in Tris buffer: 10 mM Tris buffer pH 9; for solubility in acetate buffer: 10 mM acetate buffer pH 4; for solubility in phosphate buffer: 10 mM phosphate buffer pH 7; for solubility in water: water (Solution 1)
# Protocol: Indolocarbazole esters were dissolved in water, dimethylsulfoxide (DMSO) and the following buffer solutions to determine solubility and to observe conversion to indolocarbazole I-5. Samples were analyzed by HPLC using UV detection at 290 nm.
# Solution 2 was a 10 mM acetate buffer at pH 4 which was prepared by weighing 0.68 g of sodium acetate 3H2O into 500 ml of water and adjusting the pH with acetic acid.
# Solution 3 was a 10 mM phosphate buffer, pH 7, which was prepared by weighing 0.30 g of monobasic sodium phosphate and 0.36 g of dibasic sodium phosphate into 500 ml of water, stirring until completely dissolved, and adjusting the pH with hydrochloric acid.
# Solution 4 was a 10 mM Tris buffer, pH 9, which was prepared by weighing 0.79 g of Tris (tris(hydroxymethyl)aminomethane hydrochloride) into 500 ml of water, stirring until completely dissolved, and adjusting the pH with sodium hydroxide.
# Sample solutions were prepared by weighing 0.5-1 mg of the indolocarbazole ester into an amber 1.5 ml autosampler vial, to which the appropriate quantity of one of the buffer solutions was added, in order to achieve a final concentration of 1 mg/ml. The sample solutions were vortexed and sonicated for 10 minutes. Fifty μl aliquots were placed into 1.5 ml amber autosampler vials. The reaction was quenched at a selected time interval by addition of 450 μl DMSO to the vial.
# [2] = In vitro metabolism of I-5 esters in rat liver S-9 fraction; assay type: in vitro ADME; details: 2 mg/mL protein, 5000 ng/mL
# Protocol: (§1) Rat and human liver S-9 fractions (a mixture of cytosol and microsomes) were frozen immediately after preparation. Each aliquot was thawed once for use in incubations. Stock solutions of the indolocarbazole esters were prepared in DMSO. These were used to prepare standard curves in heat inactivated S-9 fraction that had been diluted with 0.2M phosphate buffer, pH 7.4 to yield a 2 mg/mL protein concentration. Heat inactivated S-9 was divided into 500 μL aliquots, mixed with an aliquot of the internal standard, and spiked with the respective stock ester solutions to prepare the standard curve. Incubations containing liver S-9 fraction were prepared by diluting the S-9 fraction in 0.2M phosphate buffer, pH 7.4 to yield a 2 mg/mL protein concentration. Samples (500 μL) were placed in screw-cap vials, mixed with internal standard, and spiked with stock solutions of the respective esters to yield a nominal concentration of 5000 ng/mL.
# (§2) Incubations were then performed at 37° C. in a shaking water bath for 0, 0.5, 1, 2, 5, 10, 15, 30, and 60 minutes and quenched by addition of 5 mL methylene chloride. All tubes (standards and experimentals) were extracted for 15 minutes by shaking, and centrifuged. The methylene chloride layer was removed, dried under a stream of nitrogen, and reconstituted in DMSO. Fifty μL of the reconstituted extracts were analyzed by reverse-phase HPLC with detection at 290 nm. The mobile phase and gradient conditions are given below: […]
# [3] = system: ChAT activity in spinal cord cultures; assay: Effect of indolocarbazole esters on ChAT activity in dissociated spinal cord cultures; assay type: cell-based, rat
# Protocol: The effect of indolocarbazole esters of the invention on ChAT activity was assayed in dissociated spinal cord cultures prepared from fetal rats. ChAT is the enzyme that catalyzes the synthesis of the neurotransmitter acetylcholine, and it is a specific biochemical marker for cholinergic neurons. In the spinal cord, the large majority of cholinergic neurons are motor neurons. Assay of this enzyme may thus be used as an indication of the effects of a factor (or factors) on the survival and/or differentiation of cholinergic neurons and/or regulation of this enzyme. The procedure used for the assay is that described in Example 6 of WO 94/02488. Fourteen esters were tested in the spinal cord ChAT assay to determine their relative efficacy, and the results are summarized in Table 4.
# [4] = In vitro metabolism of I-5 esters in human liver S-9 fraction; assay type: in vitro ADME; details: 2 mg/mL protein
# Protocol: as §1
# as §2, with “The methylene chloride layer was removed, dried under a stream of nitrogen, and reconstituted in DMSO.” left out, “nm.” for “nm. The mobile phase and gradient conditions are given below:”
# [5] = In vivo metabolism and intravenous pharmacokinetics of I-5 esters in male Sprague-Dawley rats; details: intravenous, rat; for hydrolysis to indolocarbazole I-5 in vivo: 5 mg/kg dose of I-5 equivalent
# Protocol: Groups of 12 male Sprague-Dawley rats were administered either DMAB dihydrochloride or β-alaninate hydrochloride through the lateral tail vein in a vehicle consisting of 0.05M acetate buffer, pH 5.0 containing 20% polyethylene glycol. The volume of the dosing solution was adjusted on the basis of body weight to deliver a 5 mg/kg dose of indolocarbazole I-5 after complete hydrolysis of the respective indolocarbazole ester. At 5, 30, 60, and 120 minutes after injection, the animals were anesthetized with carbon dioxide and a sample of whole blood was obtained by cardiac puncture. The blood was placed into a 10 mL heparinized tube containing 100 μL 50% potassium fluoride (an inhibitor of plasma esterases). Following centrifugation, the resulting plasma was frozen in a dry-ice/isopropanol bath and kept frozen at −90° C. prior to analysis.
# (§3) For analysis, the samples were thawed, internal standard was added, and the mixture was extracted with 5 mL methylene chloride. Standards in rat plasma were prepared as described previously. All tubes (standards and experimentals) were extracted for 15 minutes by shaking, and centrifuged. The methylene chloride layer was removed, dried under a stream of nitrogen, and reconstituted in DMSO. Fifty μL of the reconstituted extracts were analyzed by reverse-phase HPLC with detection at 290 nm. The mobile phase and gradient conditions are the same as those given in Example 17.
# [6] = Stability of the esters in buffered solution (conversion to indolocarbazole I-5, HPLC); assay type: physicochemical; details: buffer solutions, 24 hours
# Protocol: Solution 5 was a DMSO control.
# HPLC conditions were as follows:
# The pH of the compounds in water varied from 2 to 5 while the buffers remained approximately the same at 3.6, 6.7 and 7.8 for the 10 mM acetate, phosphate and Tris, respectively.
# Acetate buffers at pH 2, 3, 4, 5 and 6 were prepared as follows. A total of 6.8 g of sodium acetate trihydrate was added to one liter of water, and the mixture was stirred until the solid was completely dissolved. One hundred ml aliquots were placed into 150 ml Erlenmeyer flasks, and the pH values were adjusted with HCl to pH 2, 3, 4, 5, and 6. A concentration of 50 mM was chosen to reduce the effects of compound addition. The indolocarbazole ester of Example 14 was investigated only with the acetate buffers. The rates of conversion of I-5 (the appearance of indolocarbazole I-5) as a function of pH are shown in FIGS. 3, 4, and 5 for the indolocarbazole esters of Examples 14, 8, and 11, respectively.
# [7] = system: Dunning R-3327 AT-2 rat prostate tumor; assay: Anti-tumor efficacy against the androgen-independent AT-2 rat prostate tumor; assay type: in vivo; details: for Tumor volume Day 0: Day 0, daily sc dosing; for Tumor volume Day 0 / Tumor volume Day 3 / Tumor volume Day 6 / Tumor volume Day 9 / Tumor volume Day 13: Mean ± SE; for Tumor volume Day 3: Day 3, daily sc dosing; for Tumor volume Day 6: Day 6, daily sc dosing; for Tumor volume Day 9: Day 9, daily sc dosing; for Tumor volume Day 13: Day 13, daily sc dosing; for inhibiting the growth of AT-2 tumors: adult male Copenhagen rats; for inhibition of tumor growth: by Day 13 of dosing
# Protocol: Rat prostate cancer Dunning R-3327 AT-2.1 cells (Isaacs et al., Prostate 9:261-281, 1986) were grown at 37 C. in a humidified incubator, with a 95% air/5% CO2 atmosphere, in RPMI-1640 medium containing 10% fetal calf serum, 250 nM dexamethasone, 2 mM glutamine, penicillin (100 I.U./mL), and streptomycin (100 μg/mL), and 1 mM sodium pyruvate. The cells were determined to be free of mycoplasma and rodent viruses (MAP testing) by Microbiological Associates. Exponentially growing cells were harvested using 6 mL of warm trypsin. The total volume was brought up to 10 mL with media to neutralize trypsin and cells were counted. The cells were then collected by brief centrifugation, and cell pellet was resuspended in Hanks' Balanced Salt Solution to achieve the final concentration of 1×10^7 live cells/mL.
# Male inbred Copenhagen rats (200-225 g) obtained from Harlan Sprague-Dawley, Indianapolis, Ind., were maintained three rats/cage and given a commercial diet (Purina Formulab 5001) and water ad libitum. Animals were housed under humidity- and temperature-controlled conditions and light/dark cycle was set at 12-hour intervals. Rats were quarantined for one week before experimental manipulation. Tumor cell implantation and growth
# Fifty adult male Copenhagen rats were inoculated with live AT-2 cells (1×10^6 cells/rat) into their right flank. Seven days later, rats bearing AT-2 tumors (approximately 0.5‥0.7 cm^3 in volume) were divided into five groups of ten animals each. A description of the experimental groups is given below. Dosing volumes of either I-5 or its lysyl-β-alaninate ester (1 mL/kg) were based on the average weight of the animals in each dosing group and were adjusted as necessary twice a week. Tumors were measured in anesthetized animals (isofluorane vapor for approximately 1-2 minutes) every 3-4 days using a vernier caliper. Tumor volume was calculated using the formula:
# V(cm)=0.5236×length(cm)×width(cm)[(length(cm)+width(cm))/2].
# Indolocarbazole I-5 was dissolved in vehicle defined below:
# (I-5)-Lysyl-β-alaninate was dissolved in 50 mM sodium acetate buffer, pH 5.5.
# [8] = Route-to-route comparison of indolocarbazole I-5 formation from lysyl-β-alaninate in rats; assay type: in vivo, rat; details: for plasma levels of indolocarbazole I-5: intravenous 8.01 mg/kg
# Protocol: Groups of 12 male Sprague-Dawley rats were administered lysyl-β-alaninate dihydrochloride via intravenous or subcutaneous injection, as well as by oral gavage at a dose of 8.01 mg/kg. This dose was designed to deliver a 5 mg/kg equivalent dose of indolocarbazole I-5 following complete hydrolysis of the indolocarbazole ester. The volume of the dosing solution was adjusted on the basis of body weight. At 5, 30, 60, and 120 minutes after intravenous injection and 30, 60, 120, and 240 minutes after either subcutaneous injection or oral gavage, the animals were anesthetized with carbon dioxide and a sample of whole blood was obtained by cardiac puncture. The blood was placed into a heparinized container containing 100 μL 50% potassium fluoride (an inhibitor of plasma esterases) and 10 μL phenylmethylsulfonylfluoride (an inhibitor of plasma amidase). Following centrifugation, the resulting plasma was frozen in a dry-ice/isopropanol bath and kept frozen at −90° C. prior to analysis.
# as §3, with “extracts was” for “extracts were”
# [9] = system: Dunning R-3327 AT-2 rat prostate tumor; details: see WO 94/27982; cited from earlier work
solubility in Tris buffer [1],solubility in acetate buffer [1],solubility in phosphate buffer [1],solubility in water [1],hydrolysis of the ester [2],rates of hydrolysis [4],hydrolysis to indolocarbazole I-5 in vivo [5],time ester could be detected in plasma following administration [5],rate of conversion to indolocarbazole I-5 [6],SMILES,Spinal Cord ChAT Activity (% of Control) 500 nM [3],Spinal Cord ChAT Activity (% of Control) 1000 nM [3],Tumor volume Day 0 [7] [cm^3],Tumor volume Day 3 [7] [cm^3],Tumor volume Day 6 [7] [cm^3],Tumor volume Day 9 [7] [cm^3],Tumor volume Day 13 [7] [cm^3],inhibiting the growth of AT-2 tumors [7],inhibition of tumor growth [7] [%],further results
not completely soluble,completely soluble,not completely soluble,completely soluble,rapid hydrolysis,similar,rapidly hydrolyzed,two,low rate of conversion,"COC1(COC(=O)CC(C)N(C)C)CC2OC1(C)n1c3ccccc3c3c4c(c5c6ccccc6n2c5c31)C(=O)NC4.Cl (stereo not shown) [Example 8, (I-5)-Dimethylaminobutyrate Hydrochloride]",inactive,138 % of Control,–,–,–,–,–,–,–,–
not completely soluble,completely soluble,not completely soluble,completely soluble,rate of hydrolysis was markedly reduced,similar,rapidly hydrolyzed,one,–,"COC1(COC(=O)CCN)CC2OC1(C)n1c3ccccc3c3c4c(c5c6ccccc6n2c5c31)C(=O)NC4.Cl (stereo not drawn) [Example 11, (I-5)-β-Alaninate Hydrochloride]",138 % of Control,149 % of Control,–,–,–,–,–,–,–,–
–,–,–,–,–,–,–,–,–,"COC1(CO)CC2OC1(C)n1c3ccccc3c3c4c(c5c6ccccc6n2c5c31)C(=O)NC4 (stereo not shown) [Example I-5, reference compound]",–,–,0.7 ± 0.1,1.6 ± 0.2,2.1 ± 0.1,5.4 ± 0.7,11.6 ± 1.8,effective,53,growth inhibition of Dunning R-3327 AT-2 rat prostate tumor in vivo [9]: growth inhibitory properties

SMILES,solubility in Tris buffer [1],solubility in acetate buffer [1],solubility in phosphate buffer [1],solubility in water [1],hydrolysis of the ester [2],rates of hydrolysis [4],hydrolysis to indolocarbazole I-5 in vivo [5],time ester could be detected in plasma following administration [5],rate of conversion to indolocarbazole I-5 [6],Spinal Cord ChAT Activity (% of Control) 500 nM [3],Spinal Cord ChAT Activity (% of Control) 1000 nM [3],Tumor volume Day 0 [7] [cm^3],Tumor volume Day 3 [7] [cm^3],Tumor volume Day 6 [7] [cm^3],Tumor volume Day 9 [7] [cm^3],Tumor volume Day 13 [7] [cm^3],inhibiting the growth of AT-2 tumors [7],inhibition of tumor growth [7] [%],further results
"COC1(COC(=O)CCNC(=O)C(N)CCCCN)CC2OC1(C)n1c3ccccc3c3c4c(c5c6ccccc6n2c5c31)C(=O)NC4.Cl.Cl (stereo not drawn) [Example 14, (I-5)-Lysyl-β-Alaninate Dihydrochloride]",completely soluble,completely soluble,completely soluble,completely soluble,initial hydrolysis of the amide bond between the two amino acids appears to be the first metabolic event followed by hydrolysis of the ester linkage,–,–,–,low rate of conversion,121 % of Control,147 % of Control,0.6 ± 0.1,1.5 ± 0.2,2.1 ± 0.2,4.8 ± 0.6,8.3 ± 0.5,effective,72,"plasma levels of indolocarbazole I-5 ([8]; 5 minutes after dosing): approximately 600 ng/mL; plasma levels of indolocarbazole I-5 ([8]; 2 hours after dosing): approximately 80 ng/mL; plasma levels of I-5 ([8]; oral dose 8.01 mg/kg, limit of quantitation): < 50 ng/mL; conversion to I-5 in vivo ([8]; rat): rapidly converted; plasma levels of I-5 ([8]; subcutaneous 8.01 mg/kg, all time points examined): approximately 70 ng/mL"

# Reference: USRE38332E1, “Selected soluble esters of hydroxyl-containing indolocarbazoles” (Cephalon, Inc., priority 1995, dated 2003)
